The target of this assay is BoNT/A LC (Clostridium botulinum, UniProt P0DPI0). The assay is described as follows: biochemical. In kind it is biochemical.
BoNT/A LC, sequence (P0DPI0 2-448 limits assumed): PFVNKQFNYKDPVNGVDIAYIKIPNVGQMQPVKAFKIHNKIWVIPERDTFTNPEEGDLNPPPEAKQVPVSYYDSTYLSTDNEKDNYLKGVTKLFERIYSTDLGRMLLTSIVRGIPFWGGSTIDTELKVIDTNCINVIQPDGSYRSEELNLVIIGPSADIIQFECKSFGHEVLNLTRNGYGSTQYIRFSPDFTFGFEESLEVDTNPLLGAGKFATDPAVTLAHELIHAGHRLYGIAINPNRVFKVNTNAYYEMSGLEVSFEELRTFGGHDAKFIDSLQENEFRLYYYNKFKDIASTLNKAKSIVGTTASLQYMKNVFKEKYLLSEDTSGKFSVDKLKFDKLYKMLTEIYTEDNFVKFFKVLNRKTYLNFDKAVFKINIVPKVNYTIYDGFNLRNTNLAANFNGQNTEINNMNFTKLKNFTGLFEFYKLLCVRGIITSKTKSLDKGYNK

As a reminder, the IC50 is the point on the concentration scale where inhibition reaches its midpoint. Read a high IC50 as a need for much substance. For the compound `O=c1cc(COCc2ccc(Cl)cc2)nc2c(O)cccn12` [Compound 36, 2-(((4-Chlorobenzyl)oxy)methyl)-9-hydroxy-4H-pyrido [1,2-a]pyrimidin-4-one], the half-inhibitory concentration (IC50) stood at 4.13 ± 0.09 µM.

With `CCc1cc(=O)n2cccc(O)c2n1` [Compound 6, 2-Ethyl-9-hydroxy-4H-pyrido [1,2-a]pyrimidin-4-one], the “inhibitory activity against BoNT/A LC (in words)” value (“inhibitory activity” for short) is “a decrease in inhibitory potency”.

`Cc1ccc(CNCc2cc(=O)n3cccc(O)c3n2)cc1` [Compound 23, 9-Hydroxy-2-(((4-methylbenzyl)amino)methyl)-4H-pyrido [1,2-a]pyrimidin-4-one] displayed an IC50 of 1.4 ± 0.9 µM.

The compound `CN(C)Cc1cc(=O)n2cccc(O)c2n1` [Compound 15, 2-((Dimethylamino)methyl)-9-hydroxy-4H-pyrido [1,2-a]pyrimidin-4-one] yielded an IC50 above 64 µM.

For the compound `O=c1cc(COCc2ccc(F)cc2)nc2c(O)cccn12` [Compound 33, 2-(((4-Fluorobenzyl)oxy)methyl)-9-hydroxy-4H-pyrido [1,2-a]pyrimidin-4-one], it took 15 ± 1 µM to reach half-maximal inhibition (IC50).

Consider `COC(=O)c1ccc(CNCc2cc(=O)n3cccc(O)c3n2)cc1` [Compound 25, Methyl 4-((((9-hydroxy-4-oxo-4H-pyrido [1,2-a]pyrimidin-2-yl)methyl)amino)methyl) benzoate], for which the IC50 is above 64 µM.

The compound `COC(=O)c1ccc2c(c1)CCN2Cc1cc(=O)n2cccc(O)c2n1` [Compound 52, Methyl1-((9-hydroxy-4-oxo-4H-pyrido [1,2-a]pyrimidin-2-yl)methyl)indoline-5-carboxylate] registered an IC50 of 1.2 ± 0.7 µM.

On to `COC(=O)c1ccc2c(c1)N(Cc1cc(=O)n3cccc(O)c3n1)CC2` [Compound 53, Methyl-1-((9-hydroxy-4-oxo-4H-pyrido [1,2-a]pyrimidin-2-yl)methyl)indoline-6-carboxylate], for which inhibition was half-maximal at 1.1 ± 0.1 µM (IC50).

On to `CCOc1cccn2c(=O)cc(CNCc3ccccc3)nc12` [Compound 11, 2-((Benzylamino)methyl)-9-ethoxy-4H-pyrido [1,2-a]pyrimidin-4-one], for which the “inhibitory activity” value is listed as “had a similar effect”.

`COC(=O)c1cccc(CNCc2cc(=O)n3cccc(O)c3n2)c1` [Compound 24, Methyl 3-((((9-hydroxy-4-oxo-4H-pyrido [1,2-a]pyrimidin-2-yl)methyl)amino)methyl) benzoate] came in with an IC50 of 0.41 ± 0.08 µM.

`Cc1cccc2c1N(Cc1cc(=O)n3cccc(O)c3n1)CC2` [Compound 50, 9-Hydroxy-2-((7-methylindolin-1-yl)methyl)-4H-pyrido [1,2-a]pyrimidin-4-one] had an IC50 of 24 ± 14 µM. Compared with the last compound, the IC50 is about 59-fold higher.

In turn, `O=c1cc(COCc2ccccc2Cl)nc2c(O)cccn12` [Compound 34, 2-(((2-Chlorobenzyl)oxy)methyl)-9-hydroxy-4H-pyrido [1,2-a]pyrimidin-4-one] gave an IC50 of 9 ± 2 µM.

In turn, `O=c1cc(CNCc2ccc(F)cc2)nc2c(O)cccn12` [Compound 17, 2-(((4-Fluorobenzyl)amino)methyl)-9-hydroxy-4H-pyrido [1,2-a]pyrimidin-4-one] returned an IC50 of 1.2 ± 0.2 µM.

Regarding `CN(Cc1ccc(-c2ccccc2)cc1)Cc1cc(=O)n2cccc(O)c2n1` [Compound 28, 2-((([1,1′-biphenyl]-4-ylmethyl)(methyl)amino)methyl)-9-hydroxy-4H-pyrido [1,2-a]pyrimidin-4-one], the IC50 is 12 ± 0.2 µM.

On to `O=c1cc(CN2Cc3ccc(Cl)cc3C2)nc2c(O)cccn12` [Compound 43, 2-((5-Chloroisoindolin-2-yl)methyl)-9-hydroxy-4H-pyrido [1,2-a]pyrimidin-4-one], for which the IC50 was 0.5 ± 0.2 µM.

Compound `Cc1ccc(COCc2cc(=O)n3cccc(O)c3n2)cc1` [Compound 39, 9-Hydroxy-2-(((4-methylbenzyl)oxy)methyl)-4H-pyrido [1,2-a]pyrimidin-4-one] showed a concentration for half-maximal inhibition (IC50) of 9.1 ± 0.5 µM.

With `O=c1cc(CCCc2ccccc2)nc2c(O)cccn12` [Compound 7, 9-Hydroxy-2-(3-phenylpropyl)-4H-pyrido [1,2-a]pyrimidin-4-one], the “inhibitory activity” value is “drastic decrease in inhibitory activity”.

For the origin of these results see PMC10001950 (International Journal of Molecular Sciences, 2023).
